In patent EP4685153A1 (priority 2023, dated 2024):
Residues, ends and D or L forms follow the SMILES beside them. *: point of attachment. Succinyl(4-O-cholesteryl) = CC(C)CCC[C@@H](C)[C@H]1CC[C@H]2[C@@H]3CC=C4C[C@@H](OC(=O)CCC(=O)*)CC[C@]4(C)[C@H]3CC[C@]12C

Tested on: SARS-CoV-2 D614G mutant strain
Details: 48 h

In the case of `CC[C@H](C)[C@H](NC(=O)[C@H](CCCCN)NC(=O)[C@H](CCCCN)NC(=O)[C@H](CCC(=O)O)NC(=O)[C@H](CC(C)C)NC(=O)[C@H](CCC(=O)O)NC(=O)[C@H](CCC(=O)O)NC(=O)[C@H](CC(C)C)NC(=O)[C@H](CCC(=O)O)NC(=O)[C@H](CCCCN)NC(=O)[C@H](CCC(=O)O)NC(=O)[C@H](Cc1ccc(O)cc1)NC(=O)[C@H](CCC(=O)O)NC(=O)[C@H](CCC(=O)O)NC(=O)[C@H](Cc1ccc(O)cc1)NC(=O)[C@H](CCC(=O)O)NC(C)=O)C(=O)N[C@@H](CCC(=O)O)C(=O)N[C@@H](CCC(=O)O)C(=O)N[C@@H](CC(C)C)C(=O)N[C@@H](CC(C)C)C(=O)N[C@@H](CCCCN)C(=O)N[C@@H](CCCCN)C(=O)N[C@@H](C)C(=O)N[C@@H](CCC(=O)O)C(=O)N[C@@H](CCC(=O)O)C(=O)N[C@@H](CCC(N)=O)C(=O)N[C@@H](CCC(N)=O)C(=O)N[C@@H](CCCCN)C(=O)N[C@@H](CCCCN)C(=O)N[C@@H](CC(N)=O)C(=O)N[C@@H](CCC(=O)O)C(=O)N[C@@H](C)C(=O)N[C@@H](C)C(=O)N[C@@H](C)C(=O)N[C@@H](CCCCN)C(=O)N[C@@H](CCCCNC(=O)CCC(=O)O[C@H]1CC[C@@]2(C)C(=CC[C@H]3[C@@H]4CC[C@H]([C@H](C)CCCC(C)C)[C@@]4(C)CC[C@@H]32)C1)C(N)=O` [LP-127] (Ac-EYEEYEKELEELEKKIEELLKKAEEQQKKNEAAAKK(Succinyl(4-O-cholesteryl))-NH2), the IC50 is reported as 27.4 nM.
With `CC[C@H](C)[C@H](NC(=O)[C@H](CCCCN)NC(=O)[C@H](CCCCN)NC(=O)[C@H](CCC(=O)O)NC(=O)[C@H](CC(C)C)NC(=O)[C@H](CCC(=O)O)NC(=O)[C@H](CCC(=O)O)NC(=O)[C@H](CC(C)C)NC(=O)[C@H](CCC(=O)O)NC(=O)[C@H](CCCCN)NC(=O)[C@H](CCC(=O)O)NC(=O)[C@H](Cc1ccc(O)cc1)NC(=O)[C@H](CCC(=O)O)NC(C)=O)C(=O)N[C@@H](CCC(=O)O)C(=O)N[C@@H](CCC(=O)O)C(=O)N[C@@H](CC(C)C)C(=O)N[C@@H](CC(C)C)C(=O)N[C@@H](CCCCN)C(=O)N[C@@H](CCCCN)C(=O)N[C@@H](C)C(=O)N[C@@H](CCC(=O)O)C(=O)N[C@@H](CCC(=O)O)C(=O)N[C@@H](CCC(N)=O)C(=O)N[C@@H](CCC(N)=O)C(=O)N[C@@H](CCCCN)C(=O)N[C@@H](CCCCN)C(=O)N[C@@H](CC(N)=O)C(=O)N[C@@H](CCC(=O)O)C(=O)N[C@@H](C)C(=O)N[C@@H](C)C(=O)N[C@@H](C)C(=O)N[C@@H](CCCCN)C(=O)N[C@@H](CCCCNC(=O)CCC(=O)O[C@H]1CC[C@@]2(C)C(=CC[C@H]3[C@@H]4CC[C@H]([C@H](C)CCCC(C)C)[C@@]4(C)CC[C@@H]32)C1)C(N)=O` [LP-128] (Ac-EYEKELEELEKKIEELLKKAEEQQKKNEAAAKK(Succinyl(4-O-cholesteryl))-NH2) the IC50 was 25.1 nM.
